According to article PMC10443802, “Targeting a xenobiotic transporter to ameliorate vincristine-induced sensory neuropathy” (JCI Insight, 2023):
pIC50: −log10 of the molar value. Several values for one entry are separate records, joined by “and”; a condition that tells them apart may be missing. Equal values may be shown once.

Legend:
[1] = target: T1, mOATP1B2 (Mus musculus, UniProt Q9JJL3); experiment: Vincristine uptake, HEK293 cells overexpressing mOATP1B2; format: in vitro ADME
T1 sequence (Q9JJL3 1-689): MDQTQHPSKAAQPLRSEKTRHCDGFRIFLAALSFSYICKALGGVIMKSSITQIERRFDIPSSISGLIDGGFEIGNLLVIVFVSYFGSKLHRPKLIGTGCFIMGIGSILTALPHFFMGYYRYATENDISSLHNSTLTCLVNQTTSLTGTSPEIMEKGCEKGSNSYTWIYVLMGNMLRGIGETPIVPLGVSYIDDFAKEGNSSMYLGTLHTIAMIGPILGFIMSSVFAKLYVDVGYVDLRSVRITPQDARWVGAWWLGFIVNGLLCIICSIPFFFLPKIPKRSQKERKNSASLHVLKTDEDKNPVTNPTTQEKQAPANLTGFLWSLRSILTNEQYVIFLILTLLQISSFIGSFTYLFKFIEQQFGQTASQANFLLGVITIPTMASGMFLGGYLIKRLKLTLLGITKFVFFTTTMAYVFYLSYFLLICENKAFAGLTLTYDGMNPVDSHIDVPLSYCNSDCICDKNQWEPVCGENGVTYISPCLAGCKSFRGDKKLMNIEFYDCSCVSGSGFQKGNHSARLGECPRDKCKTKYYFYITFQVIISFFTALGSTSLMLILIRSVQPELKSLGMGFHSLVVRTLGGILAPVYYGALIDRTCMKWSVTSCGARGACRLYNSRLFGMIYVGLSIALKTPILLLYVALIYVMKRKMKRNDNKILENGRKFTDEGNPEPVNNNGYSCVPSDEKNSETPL
From the text: Relative uptake is expressed as percentage change compared with empty vector controls (n = 4–14 per group). […] Human OATP1B1 and OATP1B3 transporter–overexpressed cells were used as positive controls; empty vector controls were used as the negative control. LD, 100 bp ladder. […] Mechanical allodynia (C), thermal hyperalgesia (D), and sciatic nerve maximal action potential amplitudes (E) are expressed as percentage change relative to baseline values (n = 6–8 per group). Statistical analysis was performed using a 2-way ANOVA with Bonferroni’s post hoc test. **P < 0.01, ***P < 0.001, ****P < 0.0001, compared with baseline values. […] Data are shown as mean ± SEM.
Axioskop WideField Light Microscope, as described previously (10). Representative images were captured with a QIClick Digital CCD color camera.
The histograms of g-ratio (axonal diameter/whole fiber diameter as a measure of myelination degree in each fiber) distribution were generated. An observer blinded to the group compositions performed all the morphometric determinations. […]
After incubation, transport was halted by aspirating radiolabeled drug, and rinsing the cells three times with ice-cold 1X PBS. Total radioactivity originating from the substrates was measured by lysing the cells with 1N NaOH, neutralized with 2N HCL, and measuring total radioactivity by liquid scintillation counting using an LS 6500 Counter (Beckman). […]

[2] = tested on: THP1; experiment: Cytotoxicity of vincristine with or without nilotinib, MTT assay, THP1; format: cell-based, human; conditions: individual replicates; for pIC50: Homo sapiens, THP-1, THP1 cells

**Q.** With CC[C@]1(O)C[C@H]2CN(CCc3c([nH]c4ccccc34)[C@@](C(=O)OC)(c3cc4c(cc3OC)N(C=O)[C@H]3[C@@](O)(C(=O)OC)[C@H](OC(C)=O)[C@]5(CC)C=CCN6CC[C@]43[C@@H]65)C2)C1 [Vincristine, vincristine] as the molecule, how does the “Vincristine uptake (% of vector control)” value [1] read?
**A.** The value was 209.00 % of vector control and 219.00 % of vector control and 238.00 % of vector control and 218.00 % of vector control and 216.00 % of vector control and 220.00 % of vector control.

**Q.** And the pIC50 ([2]; vincristine + 1μM Nilotinib)?
**A.** Its pIC50 is 7.96.

**Q.** What about the pIC50 ([2]; vincristine alone) of the same molecule?
**A.** Its pIC50 is 7.81.

**Q.** What about the IC50 ([2]; THP1 cells, vincristine alone) of the same molecule?
**A.** The IC50 was 14.4 nM (2×) and 15.4 nM and 15.1 nM and 14.6 nM and 10.5 nM and 10.2 nM and 16.9 nM.
